The source of these data is US20250367302A1, “SMALL MOLECULE DRUG-OLIGONUCLEOTIDE CONJUGATE AND USE THEREOF” (SHANGHAI JIAO TONG UNIVERSITY, priority 2022, published 2025).

In the oligonucleotide strings, read from the 5' end, every base follows the letter of its sugar. An asterisk marks phosphorothioate; unmarked linkages are phosphodiester. Other units and linkages are bracketed, terminal groups are in braces. A string of capitals states the bases alone. d = 2'-deoxy (DNA); r = 2'-OH (RNA)

The data set deals with mice with xerophthalmia (0.2% benzalkonium chloride). In words: Benzalkonium chloride xerophthalmia mouse model: sodium fluorescein staining and phenol red cotton thread tear test. It counts as in vivo, mouse (C57BL/6). Particulars: for phenol red cotton thread infiltration length (tear secretion) after 14 d of treatment / sodium fluorescein staining eye score after 14 d of treatment: eye drops 5 μL per eye twice daily, 400 μM CsA (10RAP: 400 μM rapamycin), day 14; for phenol red cotton thread infiltration length (tear secretion), day 0 (before treatment) / sodium fluorescein staining eye score, day 0 (before treatment): xerophthalmia mice, baseline of the treatment group. How it is done: The ocular xerophthalmia model was established in 6-8 weeks old mice (C57BL/6, Suzhou Xishan Biotechnology Co., Ltd.) with 0.2% benzalkonium chloride. 5 μL of 0.2% benzalkonium chloride was dripped into each eye of the mice, once in the morning and once in the evening every day, for two consecutive weeks. After successful modeling, the hospital-prepared CsA eye drops (400 µM CsA, referred to as hospital-prepared CsA eye drops or CsA eye drops, provided by the Eye, Ear, Nose and Throat Hospital Affiliated to Fudan University School of Medicine, Shanghai) and CsA-ASONFKBIZ-m (400 µM CsA) were used for eye drops treatment, 5 μL per eye, once in the morning and once in the evening. Sodium fluorescein staining and phenol red cotton thread tear secretion test were conducted on days 0, 7, and 14 of treatment to evaluate the therapeutic effect.
(§1) The ocular xerophthalmia model was established in 6-8 weeks old mice (C57BL/6, Suzhou Xishan Biotechnology Co., Ltd.) with 0.2% benzalkonium chloride. 5 μL of 0.2% benzalkonium chloride was dripped into each eye of the mice, once in the morning and once in the evening every day, for two consecutive weeks. After successful modeling, the hospital-prepared CsA eye drops (400 μM CsA, provided by the Eye, Ear, Nose and Throat Hospital Affiliated to Fudan University School of Medicine, Shanghai) and 2CsA-ASONFKBIZ-m (400 µM CsA) were used for eye drops treatment, 5 μL per eye, once in the morning and once in the evening. Sodium fluorescein staining and phenol red cotton thread tear secretion test were conducted on days 0, 7, and 14 of treatment to evaluate the therapeutic effect.
as §1, with “µM” for “μM”, “provided” for “provided by”, “3CsA-ASONFKBIZ-m nanomicelles (133 µM ASO concentration, 400” for “2CsA-ASONFKBIZ-m (400”
as §1, with “CsA3-ASONFKBIZ-m nanomicelles” for “2CsA-ASONFKBIZ-m”, “0” for “0, 7,”
The ocular xerophthalmia model was established in 6-8 weeks old mice (C57BL/6, Suzhou Xishan Biotechnology Co., Ltd.) using 0.2% benzalkonium chloride. 5 μL of 0.2% benzalkonium chloride was dripped into each eye of the mouse, once in the morning and once in the evening every day for two weeks. After successful modeling, the hospital-prepared CsA eye drops (400 µM CsA, provided by the Eye, Ear, Nose and Throat Hospital Affiliated to Fudan University School of Medicine, Shanghai) and CsA-siRNANFKBIZ-m (400 µM CsA), 2CsA-siRNANFKBIZ-m nanomicelles (400 µM CsA), 3CsA-siRNANFKBIZ-m nanomicelles (400 µM CsA) were used for eye drops treatment, 5 μL per eye, once in the morning and once in the evening. […]

In the case of “2CsA-ASONFKBIZ-m: two CsA molecules coupled to 2DBCO ASO targeting mouse NFKBIZ (SEQ ID 4), self-assembled (AATACTGGTACATTGACGCCNTT; two CsA via DBCO click; modified_base 21 OTHER; n is t base modified with DBCO moiety)”, the “phenol red cotton thread infiltration length (tear secretion) after 14 d of treatment” value was “about 3.5 mm”; the “sodium fluorescein staining eye score after 14 d of treatment” value is “about 3.5 points”; the “phenol red cotton thread infiltration length (tear secretion), day 0 (before treatment)” value is recorded as 1.5 mm; the “sodium fluorescein staining eye score, day 0 (before treatment)” value was 6 points.

“2CsA-siRNANFKBIZ-m: two CsA coupled to sense strand of siRNA targeting mouse NFKBIZ (SEQ ID NO: 17/18) (sense GCGUCAAUGUACCAGUAUUUUNUU; antisense AAUACUGGUACAUUGACGCCU; two CsA on sense strand; modified_base 22 OTHER; n is t base modified with DBCO moiety)”: the “phenol red cotton thread infiltration length (tear secretion) after 14 d of treatment” value was “about 2.5 mm”; the “sodium fluorescein staining eye score after 14 d of treatment” value is “about 2 points”; the “phenol red cotton thread infiltration length (tear secretion), day 0 (before treatment)” value came out at 1.5 mm; the “sodium fluorescein staining eye score, day 0 (before treatment)” value is listed as 6 points.

Take “3CsA-ASONFKBIZ-m: three CsA molecules coupled to 3DBCO ASO targeting mouse NFKBIZ (SEQ ID 6), self-assembled (AATACTGGTACATTGACGCCNTNTT; three CsA via DBCO click; modified_base 21 OTHER; n is t base modified with DBCO moiety; modified_base 23 OTHER)”: the “phenol red cotton thread infiltration length (tear secretion) after 14 d of treatment” value was “about 4 mm”; the “sodium fluorescein staining eye score after 14 d of treatment” value is on record as “about 4 points”; the “phenol red cotton thread infiltration length (tear secretion), day 0 (before treatment)” value worked out at 1.3 mm; the “sodium fluorescein staining eye score, day 0 (before treatment)” value is 10 points.

Take “3CsA-siRNANFKBIZ-m: three CsA coupled to sense strand of siRNA targeting mouse NFKBIZ (SEQ ID NO: 19/20) (sense GCGUCAAUGUACCAGUAUUUUNUNUU; antisense AAUACUGGUACAUUGACGCCU; three CsA on sense strand; modified_base 22 OTHER; n is t base modified with DBCO moiety; modified_base 24 OTHER)”: the “phenol red cotton thread infiltration length (tear secretion) after 14 d of treatment” value is “about 2.5 mm”; the “sodium fluorescein staining eye score after 14 d of treatment” value is recorded as “about 2 points”; the “phenol red cotton thread infiltration length (tear secretion), day 0 (before treatment)” value amounted to 1.5 mm; the “sodium fluorescein staining eye score, day 0 (before treatment)” value was 6 points.

On to “CsA-ASONFKBIZ-m: single cyclosporin A (CsA-N3) click-coupled to 3′-DBCO ASO targeting mouse NFKBIZ gene (SEQ ID NO: 2) (AATACTGGTACATTGACGCC; 3'-DBCO ASO click-conjugated to one cyclosporin A, sugar and linkages not given here, further chemistry not given here)”, for which the “phenol red cotton thread infiltration length (tear secretion) after 14 d of treatment” value is given as “about 3.2 mm”; the “sodium fluorescein staining eye score after 14 d of treatment” value was “about 3 points”; the “phenol red cotton thread infiltration length (tear secretion), day 0 (before treatment)” value was found to be 1.8 mm; the “sodium fluorescein staining eye score, day 0 (before treatment)” value is reported as 5.5 points.

“CsA-siRNANFKBIZ-m: one CsA coupled to sense strand of siRNA targeting mouse NFKBIZ (SEQ ID NO: 15/16) (sense rGrCrGrUrCrArArUrGrUrArCrCrArGrUrArUrUdTdT; antisense rArArUrArCrUrGrGrUrArCrArUrUrGrArCrGrCdCdT; cyclosporin A clicked onto the sense 3' DBCO group, further chemistry not fully specified)”: the “phenol red cotton thread infiltration length (tear secretion) after 14 d of treatment” value was “about 2.5 mm”; the “sodium fluorescein staining eye score after 14 d of treatment” value is listed as “about 3 points”; the “phenol red cotton thread infiltration length (tear secretion), day 0 (before treatment)” value is recorded as 2 mm; the “sodium fluorescein staining eye score, day 0 (before treatment)” value is given as 6 points.
